Experimental data: paper PMC12396409, “Screening and hit evaluation of a microbial metabolite library against the pathogenic Plasmodium falciparum and Toxoplasma gondii parasites” (International Journal for Parasitology: Drugs and Drug …, 2025)
Where two headings read alike, the source gives them in different places.

How the values were obtained:
[1] = tested on: T. gondii RH strain (RH-Tub-eYFP) tachyzoites; assay: microbe, parasite or virus in culture; assay type: cell-based, Toxoplasma gondii; details: 72 h; for percent parasite growth at 2 µg/mL: Toxoplasma gondii
[2] = tested on: P. falciparum 3D7 parasites; assay: P. falciparum growth inhibition assay, 1-cycle (72 h treatment), SYBR DNA staining (library screen at 2 μg/mL and dose-response); assay type: cell-based, Plasmodium falciparum; details: 72 h; for Mean: mean of both replicates, growth (% of control); for activity at 2 µg/mL: Plasmodium falciparum
[3] = tested on: P. falciparum 3D7 parasites; assay: P. falciparum growth inhibition assay, 2-cycle (120 h treatment), delayed-death screen and dose-response; assay type: cell-based, Plasmodium falciparum; details: for activity at 2 µg/mL: Plasmodium falciparum
[4] = T. gondii, screen at 2 μg/mL, replicate 1
[5] = T. gondii, screen at 2 μg/mL, replicate 2
[6] = P. falciparum, screen at 2 μg/mL, replicate 1
[7] = P. falciparum, screen at 2 μg/mL, replicate 2
[8] = P. falciparum, 120 h, screen at 2 μg/mL, replicate 1
[9] = P. falciparum, 120 h, screen at 2 μg/mL, replicate 2
[10] = library screen at 2 μg/mL, % growth, replicate 1
[11] = library screen at 2 μg/mL, % growth, replicate 2
[12] = library screen at 2 μg/mL, 120 h, % growth, replicate 1
[13] = library screen at 2 μg/mL, 120 h, % growth, replicate 2
[14] = library screen at 2 μg/mL, % growth, replicate 1, read-out: Tg_72h_%Growth_Rep1
[15] = library screen at 2 μg/mL, % growth, replicate 2, read-out: Tg_72h_%Growth_Rep2

With CC[C@H]1OC(=O)C[C@@H](O)[C@H](C)[C@@H](O[C@@H]2O[C@H](C)[C@@H](O)[C@H](N(C)C)[C@H]2O)[C@@H](CCN2C[C@H](C)C[C@H](C)C2)C[C@@H](C)C(=O)/C=C/C(C)=C/[C@@H]1CO[C@@H]1O[C@H](C)[C@@H](O)[C@@H](OC)[C@H]1OC.O=P(O)(O)O [Tilmicosin phosphate, reference compound] the Tg_72h_%Growth_Rep1 [1, 4] was 41.21%, the Tg_72h_%Growth_Rep2 [1, 5] was 38.33% and the “1) Growth (%) at 72 h” value ([2]; P. falciparum, 2 μg/mL) was 22.07%. It also gave a Mean ([2]; P. falciparum, 2 μg/mL) of 22.07, a Pf_72h_%Growth_Rep1 [2, 6] of 4.49% and a Pf_72h_%Growth_Rep2 [2, 7] of 39.64%. The “2) Growth (%) at 120 h” value ([3]; P. falciparum, 2 μg/mL, 120 h) was 7.83%, the Pf_120h_%Growth_Rep1 [3, 8] was 10.28% and the Pf_120h_%Growth_Rep2 [3, 9] was 5.38%. The “3) Fold change (72 h/120 h)” value ([3]; P. falciparum, growth at 72 h / growth at 120 h, 2 μg/mL) was 2.8.

C/C=C(\C)c1cc(O)c(C)c2c1Oc1cc(O)cc(C)c1C(=O)O2 [Unguinol] showed a Tg_72h_%Growth_Rep1 [1, 4] of 147.94%, a Tg_72h_%Growth_Rep2 [1, 5] of 82.86% and a Pf_72h_%Growth_Rep1 [2, 6] of 95.05%. It also gave a Pf_72h_%Growth_Rep2 [2, 7] of 130.12%, a Pf_120h_%Growth_Rep1 [3, 8] of 111.35% and a Pf_120h_%Growth_Rep2 [3, 9] of 108.43%.

CC[C@H]1OC(=O)[C@H](C)[C@@H](O[C@H]2C[C@@](C)(O)[C@@H](O)[C@H](C)O2)[C@H](C)[C@@H](O[C@@H]2O[C@H](C)C[C@H](N(C)C)[C@H]2O)[C@](C)(O)C[C@@H](C)C(=O)[C@H](C)[C@@H](O)[C@]1(C)O [Erythromycin C] showed a Tg_72h_%Growth_Rep1 [1, 10] of 45.84%, a Tg_72h_%Growth_Rep2 [1, 11] of 43.52% and a Pf_72h_%Growth_Rep1 [2, 10] of 81.84%. The Pf_72h_%Growth_Rep2 [2, 11] was 74.13%, the Pf_120h_%Growth_Rep1 [3, 12] was 93.33% and the Pf_120h_%Growth_Rep2 [3, 13] was 77.67%.

In the case of CC1=C[C@@H]2/C=C(\C)CC[C@H](O)[C@H](O)/C=C/C(=O)[C@]23C(=O)N[C@@H](CC(C)C)[C@@H]3[C@@H]1C [Aspochalasin D], the percent parasite growth at 2 µg/mL [1, 14] is reported as 5.85%, the percent parasite growth at 2 µg/mL [1, 15] is reported as 2.85% and the activity at 2 µg/mL ([2]; 3D7, 72 h, library screen at 2 μg/mL, % growth, replicate 1, read-out: Pf_72h_%Growth_Rep1) is reported as 71.8%. It also gave an activity at 2 µg/mL ([2]; 3D7, 72 h, library screen at 2 μg/mL, % growth, replicate 2, read-out: Pf_72h_%Growth_Rep2) of 78.2%, an activity at 2 µg/mL ([3]; 3D7, 120 h, library screen at 2 μg/mL, 120 h, % growth, replicate 1, read-out: Pf_120h_%Growth_Rep1) of 74.4% and an activity at 2 µg/mL ([3]; 3D7, 120 h, library screen at 2 μg/mL, 120 h, % growth, replicate 2, read-out: Pf_120h_%Growth_Rep2) of 80.7%.

With CC(=O)OCC1=C[C@@H]2OC(=O)C3=CO[C@@H](O[C@@H]4O[C@H](CO)[C@@H](O)[C@H](O)[C@H]4O)[C@H]1[C@@H]32 [Asperuloside] the percent parasite growth at 2 µg/mL [1, 14] was 123%, the percent parasite growth at 2 µg/mL [1, 15] was 97.1% and the activity at 2 µg/mL ([2]; 3D7, library screen at 2 μg/mL, % growth, replicate 1, read-out: Pf_72h_%Growth_Rep1) was 86.2%. The activity at 2 µg/mL ([2]; 3D7, library screen at 2 μg/mL, % growth, replicate 2, read-out: Pf_72h_%Growth_Rep2) was 89.3%, the activity at 2 µg/mL ([3]; 3D7, library screen at 2 μg/mL, 120 h, % growth, replicate 1, read-out: Pf_120h_%Growth_Rep1) was 94.8% and the activity at 2 µg/mL ([3]; 3D7, library screen at 2 μg/mL, 120 h, % growth, replicate 2, read-out: Pf_120h_%Growth_Rep2) was 94.6%.

COc1c2c(cc3c1c(=O)c1ccccc1n3C)OCO2 [Evoxanthine] showed a Tg_72h_%Growth_Rep1 [1, 10] of 136.78%, a Tg_72h_%Growth_Rep2 [1, 11] of 86.81% and a Pf_72h_%Growth_Rep1 [2, 10] of 81.42%. The Pf_72h_%Growth_Rep2 [2, 11] was 82.46%, the Pf_120h_%Growth_Rep1 [3, 12] was 87.52% and the Pf_120h_%Growth_Rep2 [3, 13] was 89.49%.

Molecule COc1cc(/C=C/C(=O)O)cc(OC)c1O [Sinapic acid] has a Tg_72h_%Growth_Rep1 ([1]; T. gondii, parasite screen 2 μg/mL, % growth, replicate 1) of 101.84%, a Tg_72h_%Growth_Rep2 ([1]; T. gondii, parasite screen 2 μg/mL, % growth, replicate 2) of 75.80% and a Mean ([2]; P. falciparum, 2 μg/mL) of 45.98. It also gave a Pf_72h_%Growth_Rep1 ([2]; P. falciparum, parasite screen 2 μg/mL, % growth, replicate 1) of 90.37%, a Pf_72h_%Growth_Rep2 ([2]; P. falciparum, parasite screen 2 μg/mL, % growth, replicate 2) of 1.58% and a Pf_120h_%Growth_Rep1 ([3]; P. falciparum, 120 h, parasite screen 2 μg/mL, % growth, replicate 1) of 115.97%. It also gave a Pf_120h_%Growth_Rep2 ([3]; P. falciparum, 120 h, parasite screen 2 μg/mL, % growth, replicate 2) of -9.79%.

Molecule CCCCCCC(C)C/C(C)=C/C(C)/C=C(C)/C=C/C(O)C(C)(C)c1cc(O)c([C@@H]2O[C@H](CO)C[C@H](O)[C@H]2O)c(=O)o1 (some centres unmarked) [Deoxyfusapyrone] has a Tg_72h_%Growth_Rep1 [1, 4] of 120.14%, a Tg_72h_%Growth_Rep2 [1, 5] of 99.56% and a Pf_72h_%Growth_Rep1 [2, 6] of 84.11%. For the same molecule, the Pf_72h_%Growth_Rep2 [2, 7] was 85.81%, the Pf_120h_%Growth_Rep1 [3, 8] was 68.41% and the Pf_120h_%Growth_Rep2 [3, 9] was 93.55%.
